Laboratory results published in ChEMBL document CHEMBL5291721, “A preclinical secondary pharmacology resource illuminates target-adverse drug reaction associations of marketed drugs” (Nat Commun, 2023).

What was measured:
[1] = biological target: T1, Alpha-2B adrenergic receptor (Homo sapiens, UniProt P18089)
T1 sequence (P18089 whole entry): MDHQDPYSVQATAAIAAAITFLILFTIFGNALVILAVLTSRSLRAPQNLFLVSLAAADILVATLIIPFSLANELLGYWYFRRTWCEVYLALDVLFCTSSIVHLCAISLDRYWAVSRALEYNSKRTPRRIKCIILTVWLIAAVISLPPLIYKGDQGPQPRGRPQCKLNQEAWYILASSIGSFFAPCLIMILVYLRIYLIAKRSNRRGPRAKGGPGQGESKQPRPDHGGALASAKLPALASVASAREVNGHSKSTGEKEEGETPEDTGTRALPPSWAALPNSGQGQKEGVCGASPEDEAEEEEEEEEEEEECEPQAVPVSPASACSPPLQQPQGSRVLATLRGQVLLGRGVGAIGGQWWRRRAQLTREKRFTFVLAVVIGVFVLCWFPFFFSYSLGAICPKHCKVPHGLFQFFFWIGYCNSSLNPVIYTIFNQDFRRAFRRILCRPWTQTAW

[2] = biological target: Neuronal acetylcholine receptor subunit alpha-4 (Homo sapiens, UniProt P43681)
Neuronal acetylcholine receptor subunit alpha-4, sequence (P43681 whole entry): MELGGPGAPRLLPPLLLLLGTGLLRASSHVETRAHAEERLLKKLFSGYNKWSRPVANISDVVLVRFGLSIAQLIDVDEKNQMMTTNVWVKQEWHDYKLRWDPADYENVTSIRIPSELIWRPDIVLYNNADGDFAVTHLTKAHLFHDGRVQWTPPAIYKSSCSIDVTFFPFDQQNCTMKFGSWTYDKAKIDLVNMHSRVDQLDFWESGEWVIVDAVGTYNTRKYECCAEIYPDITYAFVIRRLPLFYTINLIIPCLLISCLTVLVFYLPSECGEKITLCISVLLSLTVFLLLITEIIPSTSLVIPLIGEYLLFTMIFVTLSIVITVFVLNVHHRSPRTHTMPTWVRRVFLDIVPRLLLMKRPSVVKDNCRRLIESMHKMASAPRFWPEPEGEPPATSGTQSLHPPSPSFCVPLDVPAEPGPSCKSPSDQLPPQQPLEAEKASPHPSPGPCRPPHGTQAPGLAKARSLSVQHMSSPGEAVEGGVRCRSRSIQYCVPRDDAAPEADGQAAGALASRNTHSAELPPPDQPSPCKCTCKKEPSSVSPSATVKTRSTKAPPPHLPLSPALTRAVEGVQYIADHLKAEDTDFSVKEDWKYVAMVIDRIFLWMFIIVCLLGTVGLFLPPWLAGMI

Cannabinoid receptor 1 = Cannabinoid receptor 1 (Homo sapiens, UniProt P21554); type: functional, cell-based
Cannabinoid receptor 1, sequence (P21554 whole entry): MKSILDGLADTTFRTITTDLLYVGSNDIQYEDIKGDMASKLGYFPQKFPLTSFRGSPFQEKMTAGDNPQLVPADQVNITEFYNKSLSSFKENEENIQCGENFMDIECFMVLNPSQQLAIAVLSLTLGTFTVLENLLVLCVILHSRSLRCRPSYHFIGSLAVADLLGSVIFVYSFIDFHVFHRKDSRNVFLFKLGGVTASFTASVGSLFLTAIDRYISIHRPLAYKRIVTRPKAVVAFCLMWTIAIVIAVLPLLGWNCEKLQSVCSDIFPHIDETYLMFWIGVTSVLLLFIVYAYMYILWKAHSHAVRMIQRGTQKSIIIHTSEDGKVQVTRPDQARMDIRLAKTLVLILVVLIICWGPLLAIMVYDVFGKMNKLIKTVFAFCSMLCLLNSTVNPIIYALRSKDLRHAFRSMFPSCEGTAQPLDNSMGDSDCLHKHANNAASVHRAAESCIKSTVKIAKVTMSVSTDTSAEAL

Estrogen receptor = biological target: T2, Estrogen receptor (Homo sapiens, UniProt P03372)
T2 sequence (P03372 whole entry): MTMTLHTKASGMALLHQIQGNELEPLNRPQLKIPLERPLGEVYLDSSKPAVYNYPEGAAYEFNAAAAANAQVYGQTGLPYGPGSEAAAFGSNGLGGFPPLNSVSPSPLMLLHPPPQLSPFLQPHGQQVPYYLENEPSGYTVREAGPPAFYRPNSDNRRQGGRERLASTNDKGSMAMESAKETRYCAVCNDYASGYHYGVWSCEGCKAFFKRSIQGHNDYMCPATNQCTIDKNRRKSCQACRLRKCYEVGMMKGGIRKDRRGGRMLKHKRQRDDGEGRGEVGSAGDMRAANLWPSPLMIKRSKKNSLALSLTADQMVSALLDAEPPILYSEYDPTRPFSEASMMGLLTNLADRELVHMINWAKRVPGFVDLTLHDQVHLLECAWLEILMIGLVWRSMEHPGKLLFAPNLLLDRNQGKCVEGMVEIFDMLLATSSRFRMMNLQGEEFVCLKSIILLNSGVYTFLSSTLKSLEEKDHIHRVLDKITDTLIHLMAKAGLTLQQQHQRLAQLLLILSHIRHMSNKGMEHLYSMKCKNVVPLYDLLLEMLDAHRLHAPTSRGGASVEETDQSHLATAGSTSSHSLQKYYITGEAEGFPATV

Histamine H1 receptor = Histamine H1 receptor (Homo sapiens, UniProt P35367)
Histamine H1 receptor, sequence (P35367 whole entry): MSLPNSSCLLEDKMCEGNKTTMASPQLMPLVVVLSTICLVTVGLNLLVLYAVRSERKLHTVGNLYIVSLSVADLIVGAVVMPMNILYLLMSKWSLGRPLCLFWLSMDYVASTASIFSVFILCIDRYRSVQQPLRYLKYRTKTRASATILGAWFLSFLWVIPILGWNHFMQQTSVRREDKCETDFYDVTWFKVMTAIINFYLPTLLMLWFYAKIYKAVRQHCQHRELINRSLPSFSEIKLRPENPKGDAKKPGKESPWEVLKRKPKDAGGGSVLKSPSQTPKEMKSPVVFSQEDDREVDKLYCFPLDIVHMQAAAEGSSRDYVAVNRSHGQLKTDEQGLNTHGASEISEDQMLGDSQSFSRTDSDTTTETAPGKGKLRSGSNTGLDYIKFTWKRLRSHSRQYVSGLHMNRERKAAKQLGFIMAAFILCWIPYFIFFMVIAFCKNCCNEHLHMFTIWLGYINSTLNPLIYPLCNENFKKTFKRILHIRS

[3] = biological target: 5-hydroxytryptamine receptor 2B (Homo sapiens, UniProt P41595); type: functional, cell-based
5-hydroxytryptamine receptor 2B, sequence (P41595 whole entry): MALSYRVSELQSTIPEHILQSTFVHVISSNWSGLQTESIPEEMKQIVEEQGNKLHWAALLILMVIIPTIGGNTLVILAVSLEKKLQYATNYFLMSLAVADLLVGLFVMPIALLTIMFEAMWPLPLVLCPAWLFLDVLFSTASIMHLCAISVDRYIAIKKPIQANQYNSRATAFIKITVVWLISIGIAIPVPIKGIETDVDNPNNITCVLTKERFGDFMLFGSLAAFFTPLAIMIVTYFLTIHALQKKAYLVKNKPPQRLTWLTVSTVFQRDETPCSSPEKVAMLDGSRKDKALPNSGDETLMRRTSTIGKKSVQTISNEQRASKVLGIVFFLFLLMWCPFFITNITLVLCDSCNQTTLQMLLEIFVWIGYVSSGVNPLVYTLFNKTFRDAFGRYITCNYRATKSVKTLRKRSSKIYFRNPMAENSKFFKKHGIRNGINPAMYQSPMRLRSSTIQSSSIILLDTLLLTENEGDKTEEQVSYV

[4] = biological target: T3, 5-hydroxytryptamine receptor 2C (Homo sapiens, UniProt P28335)
T3 sequence (P28335 whole entry): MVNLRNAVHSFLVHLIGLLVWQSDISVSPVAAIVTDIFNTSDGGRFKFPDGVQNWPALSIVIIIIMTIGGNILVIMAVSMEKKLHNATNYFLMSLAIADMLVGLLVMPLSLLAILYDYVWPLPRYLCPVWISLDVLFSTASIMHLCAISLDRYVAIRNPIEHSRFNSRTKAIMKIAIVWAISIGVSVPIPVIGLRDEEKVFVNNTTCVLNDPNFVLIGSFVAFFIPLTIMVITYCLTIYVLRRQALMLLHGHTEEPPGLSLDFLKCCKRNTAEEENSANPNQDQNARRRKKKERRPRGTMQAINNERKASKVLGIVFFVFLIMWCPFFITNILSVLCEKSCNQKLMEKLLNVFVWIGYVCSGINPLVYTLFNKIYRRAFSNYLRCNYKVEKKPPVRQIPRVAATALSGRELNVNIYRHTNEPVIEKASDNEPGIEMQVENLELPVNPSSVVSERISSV

Melanocortin receptor 3 = Melanocortin receptor 3 (Homo sapiens, UniProt P41968)
Melanocortin receptor 3, sequence (P41968 whole entry): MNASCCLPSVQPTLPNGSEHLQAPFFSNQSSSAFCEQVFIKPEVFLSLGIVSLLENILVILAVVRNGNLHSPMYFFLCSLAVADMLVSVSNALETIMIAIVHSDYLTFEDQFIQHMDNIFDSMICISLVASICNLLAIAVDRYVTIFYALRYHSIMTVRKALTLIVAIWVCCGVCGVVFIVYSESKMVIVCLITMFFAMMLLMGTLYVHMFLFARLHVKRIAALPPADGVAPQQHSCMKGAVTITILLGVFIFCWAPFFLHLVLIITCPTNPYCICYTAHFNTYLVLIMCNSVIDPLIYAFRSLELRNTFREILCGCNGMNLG

Motilin receptor = Motilin receptor (Homo sapiens, UniProt O43193)
Motilin receptor, sequence (O43193 whole entry): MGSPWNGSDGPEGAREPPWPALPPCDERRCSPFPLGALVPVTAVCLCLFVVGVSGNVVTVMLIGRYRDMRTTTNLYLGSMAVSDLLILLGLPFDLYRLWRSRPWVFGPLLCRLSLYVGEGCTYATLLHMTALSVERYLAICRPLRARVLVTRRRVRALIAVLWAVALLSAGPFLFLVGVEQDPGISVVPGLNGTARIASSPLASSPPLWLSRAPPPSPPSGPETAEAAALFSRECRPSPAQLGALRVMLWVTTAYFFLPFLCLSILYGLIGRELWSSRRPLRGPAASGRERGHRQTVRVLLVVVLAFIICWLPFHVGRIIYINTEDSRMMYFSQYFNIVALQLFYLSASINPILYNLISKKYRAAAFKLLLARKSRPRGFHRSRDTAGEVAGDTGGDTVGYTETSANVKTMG

[5] = biological target: Kappa-type opioid receptor (Homo sapiens, UniProt P41145)
Kappa-type opioid receptor, sequence (P41145 whole entry): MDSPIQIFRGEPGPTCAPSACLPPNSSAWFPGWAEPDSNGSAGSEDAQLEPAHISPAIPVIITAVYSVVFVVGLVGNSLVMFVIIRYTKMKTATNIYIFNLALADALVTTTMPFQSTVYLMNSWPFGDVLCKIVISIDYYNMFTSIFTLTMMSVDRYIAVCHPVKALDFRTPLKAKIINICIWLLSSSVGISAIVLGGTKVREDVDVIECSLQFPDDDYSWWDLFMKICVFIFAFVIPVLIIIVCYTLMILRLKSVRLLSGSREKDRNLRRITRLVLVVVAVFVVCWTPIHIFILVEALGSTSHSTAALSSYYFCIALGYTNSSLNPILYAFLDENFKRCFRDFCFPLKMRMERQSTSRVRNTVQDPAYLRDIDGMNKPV

Progesterone receptor = biological target: T4, Progesterone receptor (Homo sapiens, UniProt P06401); type: functional
T4 sequence (P06401 whole entry): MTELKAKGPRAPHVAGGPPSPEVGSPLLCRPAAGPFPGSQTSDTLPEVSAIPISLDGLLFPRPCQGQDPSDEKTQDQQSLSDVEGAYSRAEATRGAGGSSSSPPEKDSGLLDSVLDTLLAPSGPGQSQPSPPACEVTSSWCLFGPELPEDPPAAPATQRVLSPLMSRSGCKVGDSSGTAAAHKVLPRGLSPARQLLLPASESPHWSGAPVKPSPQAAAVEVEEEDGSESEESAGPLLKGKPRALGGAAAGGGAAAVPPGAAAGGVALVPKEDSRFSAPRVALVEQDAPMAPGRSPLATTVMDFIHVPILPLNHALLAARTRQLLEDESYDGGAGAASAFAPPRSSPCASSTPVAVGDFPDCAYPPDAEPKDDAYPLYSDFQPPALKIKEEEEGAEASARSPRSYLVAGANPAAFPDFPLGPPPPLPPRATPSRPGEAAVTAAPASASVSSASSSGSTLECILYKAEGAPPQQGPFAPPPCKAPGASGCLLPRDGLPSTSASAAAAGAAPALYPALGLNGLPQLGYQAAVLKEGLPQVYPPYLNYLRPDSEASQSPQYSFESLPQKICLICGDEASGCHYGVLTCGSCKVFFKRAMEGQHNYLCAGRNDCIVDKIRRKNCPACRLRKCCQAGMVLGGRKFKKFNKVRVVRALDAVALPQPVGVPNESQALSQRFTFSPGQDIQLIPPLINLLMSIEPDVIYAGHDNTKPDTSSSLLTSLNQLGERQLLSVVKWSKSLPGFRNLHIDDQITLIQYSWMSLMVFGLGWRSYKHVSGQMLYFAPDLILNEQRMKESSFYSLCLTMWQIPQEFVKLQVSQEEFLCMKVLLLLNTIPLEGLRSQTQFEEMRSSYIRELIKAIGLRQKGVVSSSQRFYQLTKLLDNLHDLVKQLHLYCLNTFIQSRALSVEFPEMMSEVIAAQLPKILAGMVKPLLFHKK
Further: assay procedure not described here.

Structure (SMILES)	AC50 [1]	AC50 [2]	AC50 (Cannabinoid receptor 1)	AC50 (Estrogen receptor)	AC50 (Histamine H1 receptor)	AC50 [3]	AC50 [4]	AC50 (Melanocortin receptor 3)	AC50 (Motilin receptor)	AC50 [5]	AC50 (Progesterone receptor)
CCCN(CC)C(CC)C(=O)Nc1c(C)cccc1C (stereo not drawn) [ETIDOCAINE]	> 30 µM	> 30 µM	> 30 µM	> 30 µM	> 30 µM	> 30 µM	> 30 µM	> 30 µM	> 30 µM	> 30 µM	> 30 µM
Clc1ccc(C(Cn2ccnc2)OCc2ccc(Sc3ccccc3)cc2)c(Cl)c1 (stereo not drawn) [FENTICONAZOLE]	12 µM	> 10 µM	> 30 µM	> 10 µM	> 30 µM	> 30 µM	> 30 µM	21 µM	23 µM	2.5 µM	25 µM
O=C(O)c1ccccc1OP(=O)(O)O [FOSFOSAL]	> 30 µM	> 30 µM	> 30 µM	> 30 µM	> 30 µM	> 30 µM	> 30 µM	> 30 µM	> 30 µM	> 30 µM	> 30 µM
CCCCCCOC(=O)CCC(=O)CN [HEXAMINOLEVULINATE]	> 30 µM	> 30 µM	> 30 µM	> 30 µM	> 30 µM	> 30 µM	24 µM	> 30 µM	> 30 µM	> 30 µM	> 30 µM
CCCC[C@H](C)C[C@H](O)/C=C/[C@H]1[C@H](O)CC(=O)[C@@H]1CCCC/C=C/C(=O)O [LIMAPROST]	> 30 µM	> 30 µM	> 30 µM	> 30 µM	> 30 µM	> 30 µM	> 30 µM	> 30 µM	> 30 µM	> 30 µM	> 30 µM
Cc1ccc(NC(=O)C2(c3ccc4c(c3)OC(F)(F)O4)CC2)nc1-c1cccc(C(=O)O)c1 [LUMACAFTOR]	> 30 µM	> 30 µM	> 30 µM	> 30 µM	> 30 µM	> 30 µM	> 30 µM	> 30 µM	> 30 µM	> 30 µM	> 30 µM
CC(=O)Nc1c(I)c(C(=O)N[C@H]2C(O)O[C@H](CO)[C@@H](O)[C@@H]2O)c(I)c(N(C)C(C)=O)c1I (stereo partly drawn) [METRIZAMIDE]	> 10 µM	> 10 µM	> 30 µM	> 10 µM	> 10 µM	> 10 µM	> 30 µM	> 10 µM	> 10 µM	> 10 µM	> 10 µM
CN(c1nccc(=O)[nH]1)C1CCN(c2nc3ccccc3n2Cc2ccc(F)cc2)CC1 [MIZOLASTINE]	> 30 µM	> 30 µM	> 30 µM	> 30 µM	> 30 µM	17 µM	> 10 µM	> 30 µM	> 30 µM	> 30 µM	> 30 µM
